Measurements from the NIST ThermoML archive (doi:10.1016/j.jct.2016.04.014).

Conditions: Liquid, Vibrating tube method

CCO [ethanol]
Conditions	mass density [kg/m3]
288.15 K, 100 kPa	793.7
288.15 K, 1000 kPa	794.4
288.15 K, 5000 kPa	797.6
288.15 K, 10000 kPa	801.5
288.15 K, 15000 kPa	805.3
288.15 K, 20000 kPa	808.9
288.15 K, 25000 kPa	812.4
288.15 K, 30000 kPa	815.7
288.15 K, 35000 kPa	819
288.15 K, 40000 kPa	822.1
288.15 K, 45000 kPa	825.1
288.15 K, 50000 kPa	828
288.15 K, 55000 kPa	830.7
288.15 K, 60000 kPa	833.3
293.15 K, 100 kPa	789.4
293.15 K, 1000 kPa	790.2
293.15 K, 5000 kPa	793.5
293.15 K, 10000 kPa	797.4
293.15 K, 15000 kPa	801.3
293.15 K, 20000 kPa	805
293.15 K, 25000 kPa	808.6
293.15 K, 30000 kPa	812
293.15 K, 35000 kPa	815.3
293.15 K, 40000 kPa	818.5
293.15 K, 45000 kPa	821.5
293.15 K, 50000 kPa	824.5
293.15 K, 55000 kPa	827.2
293.15 K, 60000 kPa	829.9
298.15 K, 100 kPa	785.2
298.15 K, 1000 kPa	785.9
298.15 K, 5000 kPa	789.3
298.15 K, 10000 kPa	793.4
298.15 K, 15000 kPa	797.3
298.15 K, 20000 kPa	801.1
298.15 K, 25000 kPa	804.8
298.15 K, 30000 kPa	808.3
298.15 K, 35000 kPa	811.7
298.15 K, 40000 kPa	814.9
298.15 K, 45000 kPa	818
298.15 K, 50000 kPa	821
298.15 K, 55000 kPa	823.8
298.15 K, 60000 kPa	826.5
303.15 K, 100 kPa	780.9
303.15 K, 101 kPa	780.83
303.15 K, 1000 kPa	781.6
303.15 K, 5000 kPa	785.1
303.15 K, 10000 kPa	789.3
303.15 K, 15000 kPa	793.3
303.15 K, 20000 kPa	797.2
303.15 K, 25000 kPa	801
303.15 K, 30000 kPa	804.6
303.15 K, 35000 kPa	808
303.15 K, 40000 kPa	811.3
303.15 K, 45000 kPa	814.5
303.15 K, 50000 kPa	817.5
303.15 K, 55000 kPa	820.3
303.15 K, 60000 kPa	823.1
308.15 K, 100 kPa	776.5
308.15 K, 1000 kPa	777.3
308.15 K, 5000 kPa	780.9
308.15 K, 10000 kPa	785.2
308.15 K, 15000 kPa	789.3
308.15 K, 20000 kPa	793.3
308.15 K, 25000 kPa	797.1
308.15 K, 30000 kPa	800.8
308.15 K, 35000 kPa	804.3
308.15 K, 40000 kPa	807.7
308.15 K, 45000 kPa	810.9
308.15 K, 50000 kPa	814
308.15 K, 55000 kPa	816.9
308.15 K, 60000 kPa	819.6
313.15 K, 100 kPa	772.1
313.15 K, 101 kPa	772.1
313.15 K, 1000 kPa	773
313.15 K, 5000 kPa	776.6
313.15 K, 10000 kPa	781
313.15 K, 15000 kPa	785.3
313.15 K, 20000 kPa	789.4
313.15 K, 25000 kPa	793.3
313.15 K, 30000 kPa	797
313.15 K, 35000 kPa	800.6
313.15 K, 40000 kPa	804.1
313.15 K, 45000 kPa	807.4
313.15 K, 50000 kPa	810.5
313.15 K, 55000 kPa	813.4
313.15 K, 60000 kPa	816.2
318.15 K, 100 kPa	767.7
318.15 K, 1000 kPa	768.5
318.15 K, 5000 kPa	772.3
318.15 K, 10000 kPa	776.8
318.15 K, 15000 kPa	781.2
318.15 K, 20000 kPa	785.4
318.15 K, 25000 kPa	789.4
318.15 K, 30000 kPa	793.2
318.15 K, 35000 kPa	796.9
318.15 K, 40000 kPa	800.4
318.15 K, 45000 kPa	803.8
318.15 K, 50000 kPa	806.9
318.15 K, 55000 kPa	809.9
318.15 K, 60000 kPa	812.8
323.15 K, 100 kPa	763.2
323.15 K, 101 kPa	763.22
323.15 K, 1000 kPa	764.1
323.15 K, 5000 kPa	768
323.15 K, 10000 kPa	772.6
323.15 K, 15000 kPa	777.1
323.15 K, 20000 kPa	781.4
323.15 K, 25000 kPa	785.5
323.15 K, 30000 kPa	789.4
323.15 K, 35000 kPa	793.2
323.15 K, 40000 kPa	796.8
323.15 K, 45000 kPa	800.2
323.15 K, 50000 kPa	803.4
323.15 K, 55000 kPa	806.5
323.15 K, 60000 kPa	809.3
328.15 K, 100 kPa	758.7
328.15 K, 1000 kPa	759.6
328.15 K, 5000 kPa	763.6
328.15 K, 10000 kPa	768.3
328.15 K, 15000 kPa	772.9
328.15 K, 20000 kPa	777.3
328.15 K, 25000 kPa	781.6
328.15 K, 30000 kPa	785.6
328.15 K, 35000 kPa	789.5
328.15 K, 40000 kPa	793.1
328.15 K, 45000 kPa	796.6
328.15 K, 50000 kPa	799.9
328.15 K, 55000 kPa	803
328.15 K, 60000 kPa	805.9
333.15 K, 100 kPa	754.1
333.15 K, 1000 kPa	755
333.15 K, 5000 kPa	759.1
333.15 K, 10000 kPa	764
333.15 K, 15000 kPa	768.8
333.15 K, 20000 kPa	773.3
333.15 K, 25000 kPa	777.6
333.15 K, 30000 kPa	781.7
333.15 K, 35000 kPa	785.7
333.15 K, 40000 kPa	789.4
333.15 K, 45000 kPa	792.9
333.15 K, 50000 kPa	796.3
333.15 K, 55000 kPa	799.4
333.15 K, 60000 kPa	802.4
343.15 K, 100 kPa	744.6
343.15 K, 1000 kPa	745.6
343.15 K, 5000 kPa	750
343.15 K, 10000 kPa	755.2
343.15 K, 15000 kPa	760.2
343.15 K, 20000 kPa	765
343.15 K, 25000 kPa	769.6
343.15 K, 30000 kPa	773.9
343.15 K, 35000 kPa	778
343.15 K, 40000 kPa	781.9
343.15 K, 45000 kPa	785.6
343.15 K, 50000 kPa	789.1
343.15 K, 55000 kPa	792.3
343.15 K, 60000 kPa	795.3
353.15 K, 1000 kPa	736
353.15 K, 5000 kPa	740.6
353.15 K, 10000 kPa	746.2
353.15 K, 15000 kPa	751.5
353.15 K, 20000 kPa	756.5
353.15 K, 25000 kPa	761.3
353.15 K, 30000 kPa	765.9
353.15 K, 35000 kPa	770.2
353.15 K, 40000 kPa	774.3
353.15 K, 45000 kPa	778.1
353.15 K, 50000 kPa	781.7
353.15 K, 55000 kPa	785.1
353.15 K, 60000 kPa	788.2
363.15 K, 1000 kPa	725.9
363.15 K, 5000 kPa	730.8
363.15 K, 10000 kPa	736.7
363.15 K, 15000 kPa	742.4
363.15 K, 20000 kPa	747.7
363.15 K, 25000 kPa	752.8
363.15 K, 30000 kPa	757.7
363.15 K, 35000 kPa	762.2
363.15 K, 40000 kPa	766.5
363.15 K, 45000 kPa	770.5
363.15 K, 50000 kPa	774.3
363.15 K, 55000 kPa	777.7
363.15 K, 60000 kPa	780.9
373.15 K, 1000 kPa	715.3
373.15 K, 5000 kPa	720.6
373.15 K, 10000 kPa	727
373.15 K, 15000 kPa	733
373.15 K, 20000 kPa	738.7
373.15 K, 25000 kPa	744.2
373.15 K, 30000 kPa	749.3
373.15 K, 35000 kPa	754.1
373.15 K, 40000 kPa	758.6
373.15 K, 45000 kPa	762.8
373.15 K, 50000 kPa	766.7
373.15 K, 55000 kPa	770.2
373.15 K, 60000 kPa	773.5
393.15 K, 1000 kPa	692.2
393.15 K, 5000 kPa	698.4
393.15 K, 10000 kPa	705.8
393.15 K, 15000 kPa	712.8
393.15 K, 20000 kPa	719.4
393.15 K, 25000 kPa	725.6
393.15 K, 30000 kPa	731.4
393.15 K, 35000 kPa	736.8
393.15 K, 40000 kPa	741.8
393.15 K, 45000 kPa	746.4
393.15 K, 50000 kPa	750.7
393.15 K, 55000 kPa	754.5
393.15 K, 60000 kPa	757.9
413.15 K, 1000 kPa	666.3
413.15 K, 5000 kPa	673.6
413.15 K, 10000 kPa	682.3
413.15 K, 15000 kPa	690.5
413.15 K, 20000 kPa	698.1
413.15 K, 25000 kPa	705.3
413.15 K, 30000 kPa	712
413.15 K, 35000 kPa	718.2
413.15 K, 40000 kPa	723.8
413.15 K, 45000 kPa	729
413.15 K, 50000 kPa	733.7
413.15 K, 55000 kPa	737.9
413.15 K, 60000 kPa	741.5
